One assay deals with T1, Insulin Receptor (Sus scrofa, UniProt F1SCL0).
T1 construct: expressed in transfected cells
As to the kind of experiment: Insulin Receptor Binding Assay, minipig. To be noted: Table 7, control molecules, minipig IR.

A further assay deals with T2, human IR (Homo sapiens, UniProt P06213).
T2 construct: expressed in transfected cells; host or cells: CHO cells (G418 selection)
As to the kind of experiment: Insulin Receptor Phosphorylation (pAkt) Assay, CHO cells overexpressing human IR. To be noted: Table 7, control molecules, read-out: Insulin Receptor pAK Assay EC50 Human. It counts as cell-based.

The target of another assay is T3, minipig IR (Sus scrofa, UniProt F1SCL0).
T3 construct: expressed in transfected cells; host or cells: CHO cells (G418 selection)
As to the kind of experiment: Insulin Receptor Phosphorylation (pAkt) Assay, CHO cells overexpressing minipig IR. The assay is classed as cell-based. The following applies: Table 7, control molecules, read-out: Insulin Receptor pAK Assay EC50 Minipig.

T1 sequence (F1SCL0 28-1382): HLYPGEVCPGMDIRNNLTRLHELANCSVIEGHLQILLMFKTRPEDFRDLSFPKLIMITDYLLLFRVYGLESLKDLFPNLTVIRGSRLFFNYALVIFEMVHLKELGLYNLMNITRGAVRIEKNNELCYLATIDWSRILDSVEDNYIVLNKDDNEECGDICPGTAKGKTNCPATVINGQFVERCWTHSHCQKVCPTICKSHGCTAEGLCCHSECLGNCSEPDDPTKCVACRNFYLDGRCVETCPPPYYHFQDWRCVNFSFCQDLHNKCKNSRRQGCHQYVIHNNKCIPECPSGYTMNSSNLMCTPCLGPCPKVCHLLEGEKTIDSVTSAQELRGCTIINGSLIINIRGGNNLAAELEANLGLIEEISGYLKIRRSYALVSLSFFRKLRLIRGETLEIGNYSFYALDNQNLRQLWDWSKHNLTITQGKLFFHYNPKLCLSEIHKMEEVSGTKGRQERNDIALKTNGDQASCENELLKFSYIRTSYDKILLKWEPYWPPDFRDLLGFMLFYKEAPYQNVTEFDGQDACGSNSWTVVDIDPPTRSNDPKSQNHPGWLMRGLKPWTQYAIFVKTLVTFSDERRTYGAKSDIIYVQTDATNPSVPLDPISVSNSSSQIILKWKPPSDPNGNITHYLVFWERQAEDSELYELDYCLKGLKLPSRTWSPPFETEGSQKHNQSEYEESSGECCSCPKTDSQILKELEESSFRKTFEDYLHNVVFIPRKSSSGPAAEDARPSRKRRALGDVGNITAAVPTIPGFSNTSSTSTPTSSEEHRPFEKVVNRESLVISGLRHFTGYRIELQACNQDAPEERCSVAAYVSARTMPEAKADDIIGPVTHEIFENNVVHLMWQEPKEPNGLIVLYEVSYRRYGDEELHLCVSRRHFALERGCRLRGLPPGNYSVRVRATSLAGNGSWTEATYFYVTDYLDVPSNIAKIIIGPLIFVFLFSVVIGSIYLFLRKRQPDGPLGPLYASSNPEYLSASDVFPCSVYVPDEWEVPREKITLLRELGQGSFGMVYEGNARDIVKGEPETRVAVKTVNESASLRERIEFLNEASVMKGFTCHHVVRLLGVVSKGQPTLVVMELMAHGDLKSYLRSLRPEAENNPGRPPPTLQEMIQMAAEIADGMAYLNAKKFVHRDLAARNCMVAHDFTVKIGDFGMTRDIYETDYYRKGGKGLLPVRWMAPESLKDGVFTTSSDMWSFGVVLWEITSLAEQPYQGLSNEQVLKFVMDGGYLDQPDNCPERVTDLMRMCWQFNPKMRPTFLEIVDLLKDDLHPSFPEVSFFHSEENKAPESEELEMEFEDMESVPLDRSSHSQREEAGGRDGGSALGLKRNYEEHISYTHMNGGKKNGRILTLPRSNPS
T3 sequence (F1SCL0 28-1382): as above
T2 sequence (P06213 28-758 limits assumed): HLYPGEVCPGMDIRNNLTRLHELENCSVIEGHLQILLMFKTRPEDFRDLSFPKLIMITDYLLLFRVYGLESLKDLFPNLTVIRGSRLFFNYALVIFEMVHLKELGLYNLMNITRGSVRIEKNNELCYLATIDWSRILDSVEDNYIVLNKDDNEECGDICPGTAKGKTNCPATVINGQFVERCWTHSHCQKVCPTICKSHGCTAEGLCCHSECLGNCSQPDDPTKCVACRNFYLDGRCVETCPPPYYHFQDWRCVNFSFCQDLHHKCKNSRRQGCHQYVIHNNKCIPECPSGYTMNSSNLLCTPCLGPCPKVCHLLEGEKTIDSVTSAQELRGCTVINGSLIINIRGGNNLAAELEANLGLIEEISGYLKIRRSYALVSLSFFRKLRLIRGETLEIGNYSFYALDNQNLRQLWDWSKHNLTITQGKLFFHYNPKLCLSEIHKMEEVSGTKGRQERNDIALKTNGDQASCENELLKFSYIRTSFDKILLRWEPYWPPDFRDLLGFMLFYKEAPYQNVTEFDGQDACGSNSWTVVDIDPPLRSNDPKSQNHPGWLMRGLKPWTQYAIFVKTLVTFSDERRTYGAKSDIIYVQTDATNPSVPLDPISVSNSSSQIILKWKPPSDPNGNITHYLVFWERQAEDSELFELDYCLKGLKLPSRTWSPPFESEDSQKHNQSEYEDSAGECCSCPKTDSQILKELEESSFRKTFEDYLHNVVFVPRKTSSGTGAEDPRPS
T2 sequence (P06213 763-1382 limits assumed): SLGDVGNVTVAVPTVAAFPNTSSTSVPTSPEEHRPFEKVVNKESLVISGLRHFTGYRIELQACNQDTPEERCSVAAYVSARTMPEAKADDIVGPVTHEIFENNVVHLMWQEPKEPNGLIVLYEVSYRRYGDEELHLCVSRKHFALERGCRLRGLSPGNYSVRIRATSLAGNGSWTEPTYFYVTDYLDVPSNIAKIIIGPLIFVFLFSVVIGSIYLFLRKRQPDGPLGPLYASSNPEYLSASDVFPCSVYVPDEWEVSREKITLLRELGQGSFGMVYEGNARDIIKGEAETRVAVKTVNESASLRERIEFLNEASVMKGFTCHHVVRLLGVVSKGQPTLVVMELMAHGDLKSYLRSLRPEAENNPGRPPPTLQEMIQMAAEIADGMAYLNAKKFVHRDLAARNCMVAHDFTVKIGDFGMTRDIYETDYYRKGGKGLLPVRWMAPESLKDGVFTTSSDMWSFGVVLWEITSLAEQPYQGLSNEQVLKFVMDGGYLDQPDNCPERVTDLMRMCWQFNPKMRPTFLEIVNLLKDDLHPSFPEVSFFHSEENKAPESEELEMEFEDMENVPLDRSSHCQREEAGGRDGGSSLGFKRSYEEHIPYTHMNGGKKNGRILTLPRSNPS

By EC50 is commonly meant the concentration needed to bring the measured effect to its halfway point. Take Insulin degludec [ID]: the EC50 at Insulin Receptor was found to be 8.46 nM.

Take Insulin levemir [IL]: the EC50 at human IR turned out to be 0.51 nM; on minipig IR it was 0.5 nM.

These data come from patent US20190175744A1, “INSULIN-INCRETIN CONJUGATES” (Merck Sharp & Dohme Corp., priority 2016, published 2019).
